Results reported in patent US20240174624A1, “CHIRAL N-(1,3,4-OXADIAZOLE-2-YL)PHENYL CARBOXYLIC ACID AMIDES AND THEIR USE AS HERBICIDES” (Bayer Aktiengesellschaft, priority 2021, published 2024).

Experiments:
ZEAMX [1] = assay: Pre-emergence damage to crop plants; type: in vivo, Zea mays; conditions: comparative experiment
Description: (§1) Seeds of monocotyledonous and dicotyledonous weed plants and crop plants are laid out in sandy loam soil in wood-fibre pots and covered with soil. The compounds of the invention, formulated in the form of wettable powders (WP) or as emulsion concentrates (EC), are then applied to the surface of the covering soil in the form of an aqueous suspension or emulsion at a water application rate equivalent to 600 to 800 l/ha, with addition of 0.2% wetting agent. After the treatment, the pots are placed in a greenhouse and kept under good growth conditions for the trial plants. The damage to the test plants is scored visually after a test period of 3 weeks by comparison with untreated controls (herbicidal activity in percent (%): 100% activity=the plants have died, 0% activity=like control plants). […] The tables below illustrate, in an illustrative manner, the post-emergence herbicidal action of the compounds of the invention, the herbicidal activity being stated in percent. In the experiments that follow, the herbicidal action of the compounds of the invention and that of the corresponding known racemic compounds closest from WO2012126932 and WO2018202535 were compared under the above-specified conditions by the pre-emergence and post-emergence method. The example numbers given in the tables relate to the compounds disclosed in the respective documents.

TRZAS [2] = assay: Post-emergence damage to crop plants; type: in vivo, Triticum aestiva; conditions: comparative experiment
Method: (§2) Seeds of monocotyledonous and dicotyledonous weed and crop plants are laid out in sandy loam soil in wood-fibre pots, covered with soil and cultivated in a greenhouse under good growth conditions. 2 to 3 weeks after sowing, the test plants are treated at the one-leaf stage. The compounds of the invention, formulated in the form of wettable powders (WP) or as emulsion concentrates (EC), are then sprayed onto the green parts of the plants in the form of an aqueous suspension or emulsion at a water application rate equating to 600 to 800 l/ha, with addition of 0.2% wetting agent. After the test plants have been left to stand in the greenhouse under optimal growth conditions for about 3 weeks, the action of the preparations is assessed visually in comparison to untreated controls (herbicidal action in percent (%): 100% activity=the plants have died, 0% activity=like control plants). […] The tables below illustrate, in an illustrative manner, the post-emergence herbicidal action of the compounds of the invention, the herbicidal activity being stated in percent. In the experiments that follow, the herbicidal action of the compounds of the invention and that of the corresponding known racemic compounds closest from WO2012126932 and WO2018202535 were compared under the above-specified conditions by the pre-emergence and post-emergence method. The example numbers given in the tables relate to the compounds disclosed in the respective documents.

BRSNW = assay: Pre-emergence damage to crop plants; type: in vivo, Brassica napus; conditions: 20 g a.i./ha, comparative experiment
Description: as §1

ORYZA [3] = assay: Post-emergence damage to crop plants; type: in vivo, Oryza sativa; conditions: comparative experiment
Method: as §2

GLXMA = assay: Pre-emergence damage to crop plants; type: in vivo, Glycine max; conditions: 80 g a.i./ha, comparative experiment
Description: as §1

TRZAS [4] = assay: Pre-emergence damage to crop plants; type: in vivo, Triticum aestiva; conditions: comparative experiment
Description: as §1

ZEAMX [5] = assay: Post-emergence damage to crop plants; type: in vivo, Zea mays; conditions: 80 g a.i./ha, comparative experiment
Method: as §2

ORYZA [6] = assay: Pre-emergence damage to crop plants; type: in vivo, Oryza sativa; conditions: 80 g a.i./ha, comparative experiment
Description: as §1

| Structure (SMILES) | Damage to ZEAMX (ZEAMX [1]; 20 g a.i./ha) [%] | Damage to ZEAMX (ZEAMX [1]; 80 g a.i./ha) [%] | Damage to TRZAS (TRZAS [2]; 5 g a.i./ha) [%] | Damage to TRZAS (TRZAS [2]; 20 g a.i./ha) [%] | Damage to BRSNW (BRSNW) [%] | Damage to ORYZA (ORYZA [3]; 5 g a.i./ha) [%] | Damage to GLXMA (GLXMA) [%] | Damage to TRZAS (TRZAS [4]; 20 g a.i./ha) [%] | Damage to TRZAS (TRZAS [4]; 80 g a.i./ha) [%] | Damage to ZEAMX (ZEAMX [1]; 320 g a.i./ha) [%] | Damage to TRZAS (TRZAS [2]; 80 g a.i./ha) [%] | Damage to ZEAMX (ZEAMX [5]) [%] | Damage to ORYZA (ORYZA [3]; 80 g a.i./ha) [%] | Damage to ORYZA (ORYZA [6]) [%] |
| --- | --- | --- | --- | --- | --- | --- | --- | --- | --- | --- | --- | --- | --- | --- |
| Cc1c(C(=O)Nc2nnco2)ccc(C(F)(F)F)c1[S+](C)[O-] (racemic) [1-144 from WO2012126932, 2-methyl-N-(1,3,4-oxadiazol-2-yl)-3-[(rac)-methylsulfinyl]-4-(trifluoromethyl)benzamide, reference compound] | 20 | 30 | 40 | 50 | 100 | 60 | 80 | 50 | 90 | – | – | – | – | – |
| C[S+]([O-])c1c(C(F)(F)F)ccc(C(=O)Nc2nnco2)c1Cl (racemic) [1-360, from WO2012126932, 2-chloro-N-(1,3,4-oxadiazol-2-yl)-3-[(rac)-methylsulfinyl]-4-(trifluoromethyl)benzamide, reference compound] | – | – | – | – | – | – | – | – | 80 | 20 | 100 | 20 | 100 | 100 |
